According to patent US20080260833A1, “Drug delivery vehicle containing vesicles in a hydrogel base” (priority 2007, published 2008):
Structures can show the parent of a compound that is named as a salt.

Key:
Assay type in all cases: physicochemical
[1] = Release from pH responsive vesicles in hydrogel (Example 2); details: poly(2-vinylpyridine-b-ethylene oxide) vesicles in hydrogel; buffer pH 4 to 6.5 in 0.5 pH steps
Source text: The vesicles are made from the block copolymer poly(2-vinylpyridine-b-ethylene oxide) (NP2VP:29,NPEO: 15) This polymer can be made as described in Foerster et al., Langmuir, 2006, 22, 5843-5847.
(§1) The hydrogel matrix is the same as Example 1.
(§2) The vesicles are loaded with lidocaine HCl, via a phase transfer method from chloroform to water, and cleaned over a Sepharose column. The resulting vesicles formulation is mixed with the PVA-acrylamide macromer and Irgacure 2959.3 g of the hydrogel is crosslinked with UV and immersed in 5 ml buffer solution at pH 4. The 5 ml buffer is exchanged after 8-16 h with 5 ml buffer solution at 0.5 pH units higher and left for another 8-16 h. This is repeated until pH 6.5 is reached. About 80% of free lidocaine is released from the hydrogel in 8 hours. The lidocaine HCl release is measured with UV at 263 nm and compared to a standard curve.

[2] = Release of free lidocaine from the PVA-acrylamide hydrogel (Example 2); details: in 8 hours; 3 g UV-crosslinked hydrogel in 5 ml buffer; UV at 263 nm
Procedure: as §1, §2

[3] = Release from vesicles crosslinked into the hydrogel (Example 5); details: buffer pH 6.5, 50 C for 24 hours or taken out of solution over night
Source text: Vesicles are made from the block copolymer HO-poly(2-methyl-2-oxazoline)-b-polydimethylsiloxane-b-poly(2-methyl-2-oxazoline)-OH modified with isocyanto-ethylmetacrylate at the OH endgroups as taught in U.S. Pat. No. 5,807,944 to Hirt et al.
The hydrogel matrix is made as described in Example 1.
The vesicles are loaded with a hydrophilic lidocaine HCl and cleaned over a Sepharose column as taught above. The resulting vesicles formulation is mixed with the PVA-acrylamide macromer and Irgacure 2959.3 times 3 g of the hydrogel is crosslinked with UV and immersed in 10 ml buffer solution at pH 6.5 each. One sample is exposed to 50 C for 24 hours and left for another 24 hours. One sample is taken out of solution over night and put back into the buffer for 24 hours. Solutions are analyzed with UV for the lidocaine release and compared to the untreated solution.

[4] = Release from temperature sensitive vesicles in hydrogel (Example 4); details: cooled from 40 C to room temperature, 10 ml water, 12 hours
Procedure: The vesicles are loaded with lidocaine HCl in a buffered solution at pH 6.5 above 40 C and cleaned over a Sepharose column. The resulting vesicles are mixed into 3 g of hydrogel at a solid content of 7% at 40 C. The hydrogel is cooled to room temperature and immersed in 10 ml of water. […] The release is measured with UV at 263 nm over 12 hours.

[5] = Passive diffusion from vesicles and hydrogel matrix (Example 1); details: PMOXA-b-PDMS-b-PMOXA vesicles in PVA-acrylamide hydrogel; water
Procedure: Vesicles are made out of the block copolymer poly(2-methyl-2-oxazoline)-b-polydimethylsiloxane-b-poly(2-methyl-2-oxazoline). Molecular weights of the segments are poly(2-methyl-2-oxazoline): 1300, and PDMS segment: 4400. The copolymer is made as described in U.S. Pat. No. 5,807,944 to Hirt et al.
A total of 50 mg of polymer was dissolved in 250 μl of ethanol (99%). The ethanolic solution was slowly added to 5 ml of bi-distilled water containing 0.2 M carboxy-fluorescein. A minimum of 4 h of stirring was allowed. Subsequently, the vesicles were extruded through 0.45 μm and 0.22 μm filters (Millex Durapore-PVDF, Millipore) 6 times. This procedure ensures formation of unilamellar vesicles with diameters dictated by the pore size of the extrusion filters and with a more monodisperse size distribution. Chromatographic separation was achieved on a Sepharose 4B column (1×30 cm) eluted with bi-distilled water. The slightly hazy fraction contains the vesicles.
The hydrogel matrix is based on a PVA-acrylamide macromer and a UV-initiator as taught by U.S. Pat. No. 7,070,809 to Goupil et al., Example 5a. […]
3 g of the vehicle are immersed in 5 ml of water. The water is exchanged every hour for the first 8 hours and every 24 hours thereafter and the fluorescence of the supernatant is measured in order to calculate the amount of carboxy-fluorescein released from the vehicle.

Compound	lidocaine HCl release out of the vesicles in response to a change in pH [1]	free lidocaine released from the hydrogel [2]	lidocaine release after shape change of the hydrogel [3]	release of vesicle content at room temperature [4]	passive release of active agent out of the vesicles and hydrogel matrix [5]
CCN(CC)CC(=O)Nc1c(C)cccc1C [lidocaine HCl]	released slowly with increasing pH, with an increased rate after pH 5	About 80%	ruptured the vesicles and their content is released	release their content slowly	–
Carboxy-fluorescein	–	–	–	–	slowly diffuse out of the vesicles and then be released from the hydrogel
